According to patent publication EP0942911B1, “BENZOPYRANOPYRROLE AND BENZOPYRANOPYRIDINE ALPHA-1 ADRENERGIC COMPOUNDS” (Abbott Laboratories, priority 1996, dated 1998):
Counter-ions that a name gives are not always drawn. Like-named read-outs stand apart in the source and are kept apart here.

Key:
Assay in all cases: biochemical
[1] = molecular target: T1, α-1b adrenoreceptor (Mesocricetus auratus, UniProt P18841); type: binding, hamster; details: read-out: Radioligand Binding (Ki, nM) 1b (Hamster)
T1 sequence (P18841 1-515): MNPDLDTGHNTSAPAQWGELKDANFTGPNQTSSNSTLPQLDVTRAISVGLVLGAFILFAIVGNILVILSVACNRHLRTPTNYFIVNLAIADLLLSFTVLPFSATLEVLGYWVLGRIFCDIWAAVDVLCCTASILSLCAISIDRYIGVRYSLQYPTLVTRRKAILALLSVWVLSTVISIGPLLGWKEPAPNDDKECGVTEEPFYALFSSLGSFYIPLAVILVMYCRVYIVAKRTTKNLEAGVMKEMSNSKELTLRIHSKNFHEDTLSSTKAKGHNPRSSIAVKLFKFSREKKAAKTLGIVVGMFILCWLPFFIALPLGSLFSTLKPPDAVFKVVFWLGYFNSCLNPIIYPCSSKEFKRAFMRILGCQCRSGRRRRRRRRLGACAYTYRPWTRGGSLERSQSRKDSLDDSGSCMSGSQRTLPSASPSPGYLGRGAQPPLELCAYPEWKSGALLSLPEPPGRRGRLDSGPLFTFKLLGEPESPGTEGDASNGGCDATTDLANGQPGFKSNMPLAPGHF
Text: (§1) The cDNA clones encoding the α-1 adrenoreceptors (α-1a, α-1b, and α-1d) were obtained from TULCO (Triangle Universities Licensing Consortium, Research Triangle Park, NC) and inserted into the eukaryotic expression vector SnaB30. In this vector, expression of the adrenoreceptor gene is under the transcriptional control of an SV40 early promoter. Positive drug selection is provided by a neomycin-resistance gene. Mouse fibroblast cells (LTK) were transfected with the α1 expression plasmids and grown in Dulbecco's modified Eagle's medium (DMEM) containing 10% fetal calf serum and 30 µM G418. Stable G418-resistant parental lines were generated, with successful expression of adrenoreceptor protein monitored using radioligand binding techniques. Stable single cell clones derived from the parental lines were screened in adrenoreceptor binding assays to identify clones having high adrenoreceptor density. Roller bottle cultures of the cloned lines were used to provide cell membranes for subsequent adrenoreceptor binding characterization studies. A cell line containing the SnaB30 vector expressing the human erythropoietin gene served as a negative control.
(§2) For adrenoreceptor binding assays, large scale membrane preparations were utilized in which 6 million cells were seeded into small (450 cm^2) Corning tissue culture roller bottles. 200 mL of DMEM containing 10% fetal calf serum and 300 µM G418 were added to each roller bottle. A 95% air / 5% CO2 gas mixture (sterile) was injected into each roller bottle prior to sealing. The bottles were then incubated at 37 °C on a roller rack for 5 days. Cells were re-fed with fresh medium after 3 days in culture.
(§3) On the fifth day of culture, growth medium was removed from cells grown in roller bottles, and the cells were washed twice with PBS (Sigma, 120 mM NaCl, 2.7 mM KCl, 10 mM Na2HPO4-NaH2PO4, pH = 7.4). Cells were detached from the roller bottles by incubating for 15 minutes at 37 °C in a Tris-EDTA solution (10 mM Tris, 100 mM NaCl, 1 mM EDTA, pH = 7.4). The cell suspension from each roller bottle was decanted into tared centrifuge tubes and kept on ice. An aliquot of each cell suspension was generally taken for cell counting. Cells were centrifuged at 3000 X G for 5 min at 2-4 °C, washed with PBS and recentrifuged. The supernatant was decanted and the pellet weighed to determine the wet weight of cells. Cells were washed a final time in 40 vol 5 mM Tris-HCl, 5 mM EDTA, pH = 7.7, and centrifuged at 40,000 X G for 10 minutes. Cells were homogenized in 10 mL of 50 mM Tris-HCl, 5 mM EDTA (pH = 7.4) and diluted to 40 mL/tube. Homogenates were centrifuged at 40,000 X G for 10 minutes. The supernatant was decanted and the pellets rehomogenized in 50 mM Tris-HCl (pH = 7.4) and centrifuged as before. The supernatant was decanted and the homogenate resuspended in 6.25 volumes (per gram wet weight) of 50 mM Tris-HCl and aliquots of the pooled homogenates frozen in liquid N2 and stored at -70 °C until the time of assay. Rat submaxillary glands were used for α-1A adrenoreceptors and were prepared essentially as described (Michel, A. D., Loury, D. N. and Whiting, R. L., Brit. J. Pharmacol. 98: 83-889 (1989)).
(§4) Receptor binding assays for α-1 adrenoreceptors were performed essentially as described by Greengrass and Bremner (Eur. J. Pharmacol. 55: 323-326 (1979)). […] Radioactivity was determined by standard liquid scintillation techniques. Data were analyzed as previously described (Hancock, A. A., Kyncl, J. J., Martin, Y. C. and DeBernardis, J. F., J. Receptor Res. 8: 23-46 (1988)).

[2] = molecular target: T2, α-1d adrenoreceptor (Rattus norvegicus, UniProt P23944); type: binding; details: read-out: Radioligand Binding (Ki, nM) 1d (Rat)
T2 sequence (P23944 1-561): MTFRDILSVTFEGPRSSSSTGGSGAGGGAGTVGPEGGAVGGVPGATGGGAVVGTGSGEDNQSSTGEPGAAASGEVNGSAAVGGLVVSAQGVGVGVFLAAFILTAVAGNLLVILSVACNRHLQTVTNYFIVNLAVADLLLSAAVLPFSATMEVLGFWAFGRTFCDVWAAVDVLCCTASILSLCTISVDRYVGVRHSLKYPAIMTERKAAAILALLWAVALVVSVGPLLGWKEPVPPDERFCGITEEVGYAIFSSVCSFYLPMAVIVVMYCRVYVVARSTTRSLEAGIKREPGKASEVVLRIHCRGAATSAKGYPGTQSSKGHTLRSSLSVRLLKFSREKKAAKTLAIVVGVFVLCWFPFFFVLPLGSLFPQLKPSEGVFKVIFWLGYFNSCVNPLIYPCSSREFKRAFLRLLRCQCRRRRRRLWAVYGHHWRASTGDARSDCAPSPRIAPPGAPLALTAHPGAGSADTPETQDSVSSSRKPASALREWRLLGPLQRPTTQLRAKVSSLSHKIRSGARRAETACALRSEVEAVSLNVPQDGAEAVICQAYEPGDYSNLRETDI
Text: as §1, §2, §3, §4

[3] = molecular target: T3, α-1a adrenoreceptor (Bos taurus, UniProt P18130); type: binding, bovine; details: read-out: Radioligand Binding (Ki, nM) 1a (Bovine)
T3 sequence (P18130 1-466): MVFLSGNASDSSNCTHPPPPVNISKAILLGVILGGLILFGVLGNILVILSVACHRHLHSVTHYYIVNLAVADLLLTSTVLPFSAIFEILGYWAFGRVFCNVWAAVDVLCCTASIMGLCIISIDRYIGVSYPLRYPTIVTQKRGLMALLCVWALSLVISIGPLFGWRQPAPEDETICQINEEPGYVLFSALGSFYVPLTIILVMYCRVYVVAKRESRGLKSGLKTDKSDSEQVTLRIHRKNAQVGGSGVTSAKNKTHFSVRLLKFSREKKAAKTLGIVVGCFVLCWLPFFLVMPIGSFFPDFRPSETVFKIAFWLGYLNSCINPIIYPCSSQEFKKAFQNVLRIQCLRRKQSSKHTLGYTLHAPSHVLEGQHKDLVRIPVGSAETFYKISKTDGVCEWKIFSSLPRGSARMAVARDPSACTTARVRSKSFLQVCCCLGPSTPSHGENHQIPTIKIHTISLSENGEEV
Text: as §1, §2, §3, §4

[4] = molecular target: T4, α-1A adrenoreceptor (rat submaxillary gland) (Rattus norvegicus, UniProt P43140); type: binding; details: read-out: Radioligand Binding (Ki, nM) 1A (Rat)
T4 sequence (P43140 1-466): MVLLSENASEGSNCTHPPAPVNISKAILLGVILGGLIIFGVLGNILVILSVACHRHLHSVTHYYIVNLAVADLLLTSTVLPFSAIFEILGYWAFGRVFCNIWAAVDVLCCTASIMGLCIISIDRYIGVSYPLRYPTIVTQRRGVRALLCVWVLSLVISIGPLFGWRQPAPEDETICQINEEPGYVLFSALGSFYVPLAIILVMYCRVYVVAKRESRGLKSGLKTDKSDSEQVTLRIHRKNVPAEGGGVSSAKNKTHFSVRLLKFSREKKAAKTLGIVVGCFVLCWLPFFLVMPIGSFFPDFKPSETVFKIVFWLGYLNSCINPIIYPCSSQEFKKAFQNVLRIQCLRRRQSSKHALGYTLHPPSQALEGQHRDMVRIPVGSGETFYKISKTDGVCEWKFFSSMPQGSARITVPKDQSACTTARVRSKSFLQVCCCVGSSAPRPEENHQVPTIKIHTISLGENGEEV
Experimental: Additionally, binding affinity against the pharrnacologically defined α-1A adrenoreceptor (rat submaxillary gland) was measured.
as §3, §4

[5] = [3H]-prazosin radioligand, cloned receptor in LTK cell membranes
[6] = [3H]-prazosin radioligand, rat submaxillary gland membranes

| Structure (SMILES) | Ki [1] | Ki [2] | Ki [3] | Ki [4] | Ki [1, 5] | Ki [2, 5] | Ki [3, 5] | Ki [4, 6] |
| --- | --- | --- | --- | --- | --- | --- | --- | --- |
| COc1ccc2c(c1)[C@@H]1CN(CCn3c(=O)[nH]c4c(sc5ncccc54)c3=O)C[C@@H]1CO2 (racemic) [Example 78, 3-[2-((±)-cis-8-Methoxy-1,2,3,3a,4,9b-hexahydro-[1]-benzopyrano[3,4-c]pyrrol-2-yl)ethyl]-pyrido[3',2':4,5]thieno[3,2-d]pyrimidine-2,4(1H,3H)-dione hydrochloride] | 1.88 nM | 0.478 nM | 0.122 nM | 0.297 nM | – | – | – | – |
| COc1cnc2sc3c(=O)n(CCCCN4C[C@H]5COc6cccc(OC)c6[C@@H]5C4)c(=O)[nH]c3c2c1 [Example 55, 3-[4-((3aS,9bR)-trans-9-Methoxy-1,2,3,3a,4,9b-hexahydro-[1]-benzopyrano[3,4-c]pyrrol-2-yl)butyl]-8-methoxy-pyrido[3',2':4,5]thieno[3,2-d]pyrimidine-2,4(1H,3H)-dione hydrochloride] | – | – | – | – | 1.46 nM | 0.02 nM | 0.103 nM | 0.111 nM |
| COc1cc(O)cc2c1[C@@H]1CN(CCCCn3c(=O)[nH]c4c(sc5ncc(-c6ccccc6)nc54)c3=O)C[C@@H]1CO2 (relative stereo) [Example 104, 3-[4-(-cis-7-Hydroxy-9-methoxy-1,2,3,3a,4,9b-hexahydro-[1]-benzopyrano[3,4-c]pyrrol-2-yl)butyl]-8-phenyl-pyrazino[2',3':4,5]thieno[3,2-d]pyrimidine-2,4(1H,3H)-dione] | – | – | – | – | 266 nM | 5.2 nM | 0.427 nM | 3.59 nM |
| COc1cccc2c1[C@@H]1CN(CCCCCn3c(=O)[nH]c4c(sc5ccccc54)c3=O)C[C@@H]1CO2 [Example 24, 3-[5-((3aR,9bR)-cis-9-Methoxy-1,2,3,3a,4,9b-hexahydro-[1]-benzopyrano[3,4-c]pyrrol-2-yl)pentyl]-[1]benzthieno[3,2-d]pyrimidine-2,4(1H,3H)-dione hydrochloride] | – | – | – | – | 5.56 nM | 4.51 nM | 0.616 nM | 5.37 nM |
| COc1cccc2c1[C@@H]1CCN(CCCn3c(=O)[nH]c4c(sc5cccnc54)c3=O)C[C@H]1CO2 [Example 92, 3-[3-((4aS,10bR)-trans-10-Methoxy-1,3,4,4a,5,10b-hexahydro-2H-[1]-benzopyrano[3,4-c]pyrido-3-yl)propyl]-pyrido[2',3':4,5]thieno[3,2-d]pyrimidine-2,4(1H,3H)-dione dihydrochloride] | – | – | – | – | 45.1 nM | 18.5 nM | 2.2 nM | 3.85 nM |
| COc1cccc2c1[C@@H]1CN(CCCCn3c(=O)[nH]c4c(sc5ncc(-c6ccoc6)nc54)c3=O)C[C@@H]1CO2 [Example 62, 3-[4-((3aR,9bR)-cis-9-Methoxy-1,2,3,3a,4,9b-hexahydro-[1]-benzopyrano[3,4-c]pyrrol-2-yl)butyl]-8-(3-furyl)-pyrazino[2',3':4,5]thieno[3,2-d]pyrimidine-2,4(1H,3H)-dione dihydrochloride] | – | – | – | – | 1150 nM | 411 nM | 52 nM | 983 nM |
| COc1cccc2c1[C@H]1CN(CCCCn3c(=O)[nH]c4c(sc5nccnc54)c3=O)C[C@@H]1CO2 [Example 12, 3-[4-((3aR,9bS)-trans-9-Methoxy-1,2,3,3a.4,9b-hexahydro-[1]-benzopyrano[3,4-c]pyrrol-2-yl)butyl]-pyrazino[2',3':4,5]thieno[3,2-d]pyrimidine-2,4(1H,3H)-dione dihydrochloride] | – | – | – | – | 5.25 nM | 2.17 nM | 0.375 nM | 0.52 nM |
| COc1ccc2sc3c(=O)n(CCCCN4C[C@@H]5COc6cccc(OC)c6[C@H]5C4)c(=O)[nH]c3c2n1 [Example 7, 3-[4-((3aR,9bS)-trans-9-Methoxy-1,2,3,3a,4,9b-hexahydro-[1]-benzopyrano[3,4-c]pyrrol-2-yl)butyl]-8-methoxy-pyrido[2',3':4,5]thieno[3,2-d]pyrimidine-2,4(1H,3H)-dione hydrochloride] | – | – | – | – | 1.61 nM | 0.438 nM | 0.215 nM | 0.53 nM |
